From PubChem BioAssay AID328 (DTP/NCI, 2004)
Several values for one entry are separate records, joined by “and”; a condition that tells them apart may be missing. Equal entries are not always repeated. Inconclusive results and toxic doses are left out. How the source made its calls: active means survival T/C of 150% or more; inactive means T/C below 125% in these data.

Test system: BDF1 mice, P388 leukemia ip, median survival T/C
Experiment: NCI In Vivo Anticancer Drug Screen. Data for tumor model P388 Leukemia (intraperitoneal) in B6D2F1 (BDF1) mice
Conditions: endpoint: median survival time, higher = longer survival
Method in brief: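 Antitumour effect was judged in vivo: survival in drug-treated mice, normalised to that of vehicle-dosed controls, gives the reported T/C.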

[1] = dose: 100.0 mg/kg/injection, schedule: Q04DX003 (ip), vehicle: saline
[2] = dose: 200.0 mg/kg/injection, schedule: Q04DX003 (ip), vehicle: saline
[3] = dose: 400.0 mg/kg/injection, schedule: Q04DX003 (ip), vehicle: saline
[4] = dose: 12.5 mg/kg/injection, schedule: Q01DX009 (ip), vehicle: saline
[5] = dose: 50.0 mg/kg/injection, schedule: Q01DX009 (ip), vehicle: saline with Tween-80
[6] = dose: 100.0 mg/kg/injection, schedule: Q01DX009 (ip), vehicle: saline with Tween-80
[7] = dose: 200.0 mg/kg/injection, schedule: Q01DX009 (ip), vehicle: saline with Tween-80
[8] = dose: 400.0 mg/kg/injection, schedule: Q01DX009 (ip), vehicle: saline with Tween-80

Measured: T/C

CCN(CC)C(=S)SSC(=S)N(CC)CC
inactive: dose: 75.0 mg/kg/injection, schedule: Q01DX001 (ip), vehicle: Klucel (hydroxypropylcellulose) (HPC) 104 % of control | dose: 150.0 mg/kg/injection, schedule: Q01DX001 (ip), vehicle: Klucel (hydroxypropylcellulose) (HPC) 104 % of control | dose: 300.0 mg/kg/injection, schedule: Q01DX001 (ip), vehicle: Klucel (hydroxypropylcellulose) (HPC) 95 % of control

O
inactive: dose: 100.0 mg/kg/injection, schedule: Q01DX001 (ip), vehicle: saline 95 % of control | [1] 105 % of control | dose: 200.0 mg/kg/injection, schedule: Q01DX001 (ip), vehicle: saline 90 % of control | [2] 95 % of control | dose: 400.0 mg/kg/injection, schedule: Q01DX001 (ip), vehicle: saline 90 % of control | [3] 105 % of control

COc1cc(CN2CCCN(Cc3cc(OC)c(OC)c(OC)c3)C2c2ccc(N(CCCl)CCCl)cc2C)cc(OC)c1OC
inactive: dose: 50.0 mg/kg/injection, schedule: Q04DX003 (ip), vehicle: saline 109 % of control | [1] 104 % of control | [2] 90 % of control | [3] 109 % of control

Nc1cccc2c1C(=O)C=CC2=O
inactive: dose: 1.15 mg/kg/injection, schedule: Q01DX009 (ip), vehicle: saline 112 % of control | dose: 2.3 mg/kg/injection, schedule: Q01DX009 (ip), vehicle: saline 108 % of control | dose: 3.25 mg/kg/injection, schedule: Q04DX003 (ip), vehicle: saline 121 % of control | dose: 4.6 mg/kg/injection, schedule: Q01DX009 (ip), vehicle: saline 108 % of control

Cc1ccc(S)c(S)c1
inactive: dose: 3.12 mg/kg/injection, schedule: Q01DX009 (ip), vehicle: saline 97 % of control | dose: 6.25 mg/kg/injection, schedule: Q01DX009 (ip), vehicle: saline 103 % of control | [4] 103 % of control | dose: 25.0 mg/kg/injection, schedule: Q01DX009 (ip), vehicle: saline 112 % of control

COc1cc2cnc3c4cc(OC)c(OC)cc4ccc3c2cc1OC
inactive: dose: 20.0 mg/kg/injection, schedule: Q01DX009 (ip), vehicle: saline with Tween-80 100 % of control | dose: 40.0 mg/kg/injection, schedule: Q01DX009 (ip), vehicle: saline with Tween-80 100 % of control | dose: 80.0 mg/kg/injection, schedule: Q01DX009 (ip), vehicle: saline with Tween-80 115 % of control | dose: 120.0 mg/kg/injection, schedule: Q01DX009 (ip), vehicle: saline with Tween-80 100 % of control | dose: 240.0 mg/kg/injection, schedule: Q01DX009 (ip), vehicle: saline with Tween-80 100 % of control

O=C(CNC(=O)Nc1n[nH]c(=S)s1)N/N=C/c1ccc2c(c1)OCO2
inactive: [5] 116 % of control | [6] 100 % of control | [7] 98 % of control

Cc1ccc(CNc2cccnc2)cc1
inactive: dose: 50.0 mg/kg/injection, schedule: Q01DX009 (ip), vehicle: other 95 % of control | dose: 100.0 mg/kg/injection, schedule: Q01DX009 (ip), vehicle: other 104 % of control | [6] 100 % of control | dose: 200.0 mg/kg/injection, schedule: Q01DX009 (ip), vehicle: other 100 % of control | [8] 100 % of control

c1ccc(CN(CCNc2ccccc2)c2ccccc2)cc1
inactive: dose: 0.78 mg/kg/injection, schedule: Q01DX009 (ip), vehicle: water 106 % of control | dose: 1.56 mg/kg/injection, schedule: Q01DX009 (ip), vehicle: water 104 % of control | dose: 3.12 mg/kg/injection, schedule: Q01DX009 (ip), vehicle: water 108 % of control | dose: 6.25 mg/kg/injection, schedule: Q01DX009 (ip), vehicle: water 104 % of control | dose: 12.5 mg/kg/injection, schedule: Q01DX009 (ip), vehicle: water 106 % of control | dose: 25.0 mg/kg/injection, schedule: Q01DX009 (ip), vehicle: water 92 % of control | dose: 50.0 mg/kg/injection, schedule: Q01DX009 (ip), vehicle: water 92 % of control | dose: 50.0 mg/kg/injection, schedule: Q04DX003 (ip), vehicle: water 100 % of control | dose: 100.0 mg/kg/injection, schedule: Q01DX009 (ip), vehicle: water 115 % of control | dose: 100.0 mg/kg/injection, schedule: Q04DX003 (ip), vehicle: water 98 % of control | dose: 200.0 mg/kg/injection, schedule: Q01DX009 (ip), vehicle: water 97 % of control | dose: 200.0 mg/kg/injection, schedule: Q04DX003 (ip), vehicle: water 103 % of control

CC(=O)O.CC(=O)O.CC(=O)O.CC(=O)O.[Rh].[Rh]
inactive: dose: 5.56 mg/kg/injection, schedule: Q01DX009 (ip), vehicle: saline 100 % of control and 122 % of control | dose: 8.33 mg/kg/injection, schedule: Q01DX009 (ip), vehicle: saline 100 % of control | [4] 118 % of control | dose: 18.7 mg/kg/injection, schedule: Q01DX009 (ip), vehicle: saline 90 % of control and 111 % of control

O=C(O)CN(Cc1ccccc1)Sc1ccccc1[N+](=O)[O-]
inactive: dose: 25.0 mg/kg/injection, schedule: Q04DX003 (ip), vehicle: other 105 % of control | dose: 50.0 mg/kg/injection, schedule: Q04DX003 (ip), vehicle: other 117 % of control | dose: 200.0 mg/kg/injection, schedule: Q04DX003 (ip), vehicle: other 117 % of control

N#CCc1nc2ccccc2[nH]1
inactive: dose: 50.0 mg/kg/injection, schedule: Q01DX009 (ip), vehicle: Klucel (hydroxypropylcellulose) (HPC) 104 % of control | dose: 100.0 mg/kg/injection, schedule: Q01DX009 (ip), vehicle: Klucel (hydroxypropylcellulose) (HPC) 109 % of control | dose: 200.0 mg/kg/injection, schedule: Q01DX009 (ip), vehicle: Klucel (hydroxypropylcellulose) (HPC) 95 % of control

C1CCNCC1.COc1ccccc1C(=O)[CH-]C(=O)C(F)(F)F.COc1ccccc1C(=O)[CH-]C(=O)C(F)(F)F.COc1ccccc1C(=O)[CH-]C(=O)C(F)(F)F.COc1ccccc1C(=O)[CH-]C(=O)C(F)(F)F.[Eu+3]
inactive: dose: 50.0 mg/kg/injection, schedule: Q01DX009 (ip), vehicle: saline 88 % of control | dose: 100.0 mg/kg/injection, schedule: Q01DX009 (ip), vehicle: saline 119 % of control

O=C1C=CC(=O)N1
inactive: dose: 0.26 mg/kg/injection, schedule: Q01DX009 (ip), vehicle: saline 105 % of control | dose: 0.4 mg/kg/injection, schedule: Q01DX009 (ip), vehicle: saline 90 % of control | dose: 0.61 mg/kg/injection, schedule: Q01DX009 (ip), vehicle: saline 100 % of control | dose: 0.93 mg/kg/injection, schedule: Q01DX009 (ip), vehicle: saline 109 % of control | dose: 1.39 mg/kg/injection, schedule: Q01DX009 (ip), vehicle: saline 118 % of control | dose: 3.6 mg/kg/injection, schedule: Q04DX003 (ip), vehicle: saline 95 % of control | dose: 8.5 mg/kg/injection, schedule: Q04DX003 (ip), vehicle: saline 104 % of control

CC(NC(=O)C(N)C(C)C)C(=O)O (stereo not given)
inactive: dose: 50.0 mg/kg/injection, schedule: Q01DX005 (ip), vehicle: saline 92 % of control | dose: 100.0 mg/kg/injection, schedule: Q01DX005 (ip), vehicle: saline 97 % of control | dose: 200.0 mg/kg/injection, schedule: Q01DX005 (ip), vehicle: saline 92 % of control

Ic1ccc(N=Cc2cccs2)cc1
inactive: [5] 117 % of control | [6] 99 % of control | [7] 97 % of control | [8] 108 % of control

ClC(Cl)(Cl)C(Cl)(Cl)c1ccc(C(Cl)(Cl)C(Cl)(Cl)Cl)cc1
inactive: dose: 18.75 mg/kg/injection, schedule: Q01DX009 (ip), vehicle: saline with Tween-80 100 % of control | dose: 37.5 mg/kg/injection, schedule: Q01DX009 (ip), vehicle: saline with Tween-80 100 % of control | dose: 75.0 mg/kg/injection, schedule: Q01DX009 (ip), vehicle: saline with Tween-80 100 % of control | dose: 100.0 mg/kg/injection, schedule: Q04DX003 (ip), vehicle: saline sonified 100 % of control | [7] 92 % of control | dose: 400.0 mg/kg/injection, schedule: Q04DX003 (ip), vehicle: saline sonified 95 % of control

CC1SCC(=O)N1c1nccs1 (stereo not given)
inactive: [5] 99 % of control | [6] 100 % of control | [7] 102 % of control

CC1(C)CCC(C)(C)c2c1ccc(O)c2Sc1c(O)ccc2c1C(C)(C)CCC2(C)C
inactive: [5] 97 % of control | [6] 97 % of control and 119 % of control | [7] 102 % of control and 104 % of control | [8] 93 % of control
